In patent publication US20220073536A1 (Rigel Pharmaceuticals, Inc., priority 2003, published 2022):

Test system: cultured human mast cells (CHMC)
Assay: CHMC low cell density IgE activation: tryptase assay
Assay type: cell-based
Conditions: Homo sapiens, Mast cell, low cell density CHMC, IgE activation, tryptase release, 3 pt; read-out: LD Tryptase, CHMC, IgE, 3 pt
Procedure: Inhibition of degranulation was measured at both low and high cell density by quantifying the release of the granule specific factors tryptase, histamine and hexosaminidase. Inhibition of release and/or synthesis of lipid mediators was assessed by measuring the release of leukotriene LTC4 and inhibition of release and/or synthesis of cytokines was monitored by quantifying TNF-α, IL-6 and IL-13. Tryptase and hexosaminidase were quantified using fluorogenic substrates as described in their respective examples. […] The protocols of the various assays are provided below.
Pellet CHMC cells (980 rpm, 10 min) and resuspend in pre-warmed MT. Add 65 ul of cells to each 96-well plate. Depending on the degranulation activity for each particular CHMC donor, load 1000-1500 cells/well. Mix four times followed by a 1 hr incubation at 37° C. […] Stimulate cells by adding 25 ul of 6× anti-IgE solution to the appropriate plates. Add 25 ul MT to un-stimulated control wells. Mix twice following addition of the anti-IgE. Incubate at 37° C. for 30 minutes. […] Spin plates at 1000 rpm for 10 min to pellet cells. Transfer 25 ul of supernatant to a 96-well black bottom plate and add 100 ul of freshly diluted tryptase substrate solution to each well. Incubate plates at room temperature for 30 min.

| Molecule | IC50 |
| --- | --- |
| COc1ccc(Nc2ncc(F)c(Nc3ccc4c(c3)NC(=O)[C@@H](C)O4)n2)cc1Cl [Compound 211] | < 10 µM |
| COc1cc(C)c(Nc2ncc(F)c(Nc3ccc4c(c3)NC(=O)[C@@H](C)O4)n2)cc1Cl [Compound 213] | < 10 µM |
| COc1cc(Nc2ncc(F)c(Nc3ccc4c(c3)NC(=O)C(C)S4(=O)=O)n2)cc(OC)c1 (stereo not drawn) [Compound 263, N2-(3,5-Dimethoxyphenyl)-N4-(dioxide-2-methyl-1,1,3-trioxo-4H-benzo[1,4]thiazin-6-yl)-5-fluoro-2,4-pyrimidinediamine] | < 10 µM |
| Cc1cc(C)cc(Nc2ncc(F)c(Nc3ccc4c(c3)NC(=O)C(C)S4(=O)=O)n2)c1 (stereo not drawn) [Compound 264] | < 10 µM |
| CC1C(=O)Nc2cc(Nc3nc(Nc4ccc5cn[nH]c5c4)ncc3F)ccc2S1(=O)=O (stereo not drawn) [Compound 265] | < 10 µM |
| COc1cc(Nc2ncc(F)c(Nc3ccc4c(c3)NC(=O)C(C)S4(=O)=O)n2)cc(OC)c1OC (stereo not drawn) [Compound 266] | < 10 µM |

Other lines, results leading:

| IC50 | Molecule |
| --- | --- |
| < 10 µM | COc1ccc(Nc2ncc(F)c(Nc3ccc4c(c3)NC(=O)C(C)S4(=O)=O)n2)cc1F (racemic) [Compound 296] |
| < 10 µM | COc1ccc(Nc2ncc(F)c(Nc3ccc4c(c3)NC(=O)C(C)S4)n2)cc1F (racemic) [Compound 298] |

Same assay, conditions: Homo sapiens, Mast cell, low cell density CHMC, IgE activation, tryptase release, 8 pt; read-out: LD Tryptase, CHMC, IgE, 8 pt

| Molecule | IC50 |
| --- | --- |
| C[C@@H]1Oc2ccc(Nc3nc(Nc4ccc5cn[nH]c5c4)ncc3F)cc2NC1=O [Compound 200] | < 10 µM |
| C[C@@H]1Oc2ccc(Nc3nc(Nc4ccc5cnn(C)c5c4)ncc3F)cc2NC1=O [Compound 201] | < 10 µM |
| Cc1cc(C)cc(Nc2ncc(F)c(Nc3ccc4c(c3)NC(=O)[C@H](C)O4)n2)c1 [Compound 202, (S)-N2-(3,5-Dimethylphenyl)-5-fluoro-N4-(2-methyl-3-oxo-2H,4H-benz[1,4]oxazin-6-yl)-2,4-pyrimidinediamine] | < 10 µM |
| COc1cc(Nc2ncc(F)c(Nc3ccc4c(c3)NC(C)(C)CO4)n2)cc(OC)c1 [Compound 203, N4-(3,4-Dihydro-3,3-dimethyl-2H,4H-benz[1,4]oxazin-6-yl)-N2-(3,5-dimethoxyphenyl)-5-fluoro-2,4-pyrimidinediamine] | < 10 µM |
| Cc1cc(C)cc(Nc2ncc(F)c(Nc3ccc4c(c3)NC(=O)[C@@H](C)O4)n2)c1 [Compound 204, (R)-N2-(3,5-Dimethylphenyl)-5-fluoro-N4-(2-methyl-3-oxo-2H,4H-benz[1,4]oxazin-6-yl)-2,4-pyrimidinediamine] | < 10 µM |
| COc1ccc(Nc2ncc(F)c(Nc3ccc4c(c3)NC(=O)[C@@H](C)O4)n2)cc1Cl [Compound 207] | < 10 µM |
| C[C@H]1Oc2ccc(Nc3nc(Nc4ccc5cnn(C)c5c4)ncc3F)cc2NC1=O [Compound 210] | < 10 µM |
| COc1cc(C)c(Nc2ncc(F)c(Nc3ccc4c(c3)NC(=O)[C@@H](C)O4)n2)cc1Cl [Compound 213] | < 10 µM |
| COc1cc(Nc2ncc(F)c(Nc3ccc4c(c3)NC(=O)C(C)S4(=O)=O)n2)cc(OC)c1 (stereo not drawn) [Compound 263, N2-(3,5-Dimethoxyphenyl)-N4-(dioxide-2-methyl-1,1,3-trioxo-4H-benzo[1,4]thiazin-6-yl)-5-fluoro-2,4-pyrimidinediamine] | < 10 µM |
| Cc1cc(C)cc(Nc2ncc(F)c(Nc3ccc4c(c3)NC(=O)C(C)S4(=O)=O)n2)c1 (stereo not drawn) [Compound 264] | < 10 µM |
| CC1C(=O)Nc2cc(Nc3nc(Nc4ccc5cn[nH]c5c4)ncc3F)ccc2S1(=O)=O (stereo not drawn) [Compound 265] | < 10 µM |
| COc1cc(Nc2ncc(F)c(Nc3ccc4c(c3)NC(=O)C(C)S4(=O)=O)n2)cc(OC)c1OC (stereo not drawn) [Compound 266] | < 10 µM |
| COc1cc(Nc2ncc(F)c(Nc3ccc4c(c3)NC(=O)C(C)(C)S4(=O)=O)n2)cc(OC)c1 [Compound 267] | < 10 µM |
| Cc1cc(C)cc(Nc2ncc(F)c(Nc3ccc4c(c3)NC(=O)C(C)(C)S4(=O)=O)n2)c1 [Compound 268] | < 10 µM |
| COc1cc(Nc2ncc(F)c(Nc3ccc4c(c3)NC(=O)C(C)(C)S4(=O)=O)n2)cc(OC)c1OC [Compound 269] | < 10 µM |
| COc1cc(Nc2ncc(F)c(Nc3ccc4c(c3)NC(=O)C(C)S4)n2)cc(OC)c1 (stereo not drawn) [Compound 270] | < 10 µM |
| Cc1cc(C)cc(Nc2ncc(F)c(Nc3ccc4c(c3)NC(=O)C(C)S4)n2)c1 (stereo not drawn) [Compound 271] | < 10 µM |
| COc1cc(Nc2ncc(F)c(Nc3ccc4c(c3)NC(=O)C(C)S4)n2)cc(OC)c1OC (stereo not drawn) [Compound 272] | < 10 µM |
| CC1(C)C(=O)Nc2cc(Nc3nc(Nc4ccc5cn[nH]c5c4)ncc3F)ccc2S1(=O)=O [Compound 273] | < 10 µM |
| CC1(C)C(=O)Nc2cc(Nc3nc(Nc4ccc5[nH]ncc5c4)ncc3F)ccc2S1(=O)=O [Compound 274] | < 10 µM |
| CC1Sc2ccc(Nc3nc(Nc4ccc5cn[nH]c5c4)ncc3F)cc2NC1=O (stereo not drawn) [Compound 277] | < 10 µM |
| CC1Sc2ccc(Nc3nc(Nc4ccc5[nH]ncc5c4)ncc3F)cc2NC1=O (stereo not drawn) [Compound 278] | < 10 µM |

The next lines start with the values.

| IC50 | Molecule |
| --- | --- |
| < 10 µM | CC1Sc2ccc(Nc3nc(Nc4cccc(O)c4)ncc3F)cc2NC1=O (racemic) [Compound 282] |
| < 10 µM | COc1ccc(Nc2ncc(F)c(Nc3ccc4c(c3)NC(=O)C(C)S4(=O)=O)n2)cc1Cl (racemic) [Compound 286] |
| < 10 µM | COc1ccc(Nc2ncc(F)c(Nc3ccc4c(c3)NC(=O)C(C)S4(=O)=O)n2)cc1F (racemic) [Compound 296] |
| < 10 µM | COc1ccc(Nc2ncc(F)c(Nc3ccc4c(c3)NC(=O)C(C)S4)n2)cc1F (racemic) [Compound 298] |

Same assay, conditions: Homo sapiens, Mast cell, low cell density, IgE activation, 3 pt; read-out: LD Tryptase, CHMC, IgE, 3 pt

| IC50 | Molecule |
| --- | --- |
| < 10 µM | CC1C(=O)Nc2cc(-c3nc(Nc4ccc5oncc5c4)nc(N)c3F)ccc2S1(=O)=O (racemic) [Compound 929] |

Same assay, conditions: Homo sapiens, Mast cell, low cell density, IgE activation, 8 pt; read-out: LD Tryptase, CHMC, IgE, 8 pt

| IC50 | Molecule |
| --- | --- |
| < 10 µM | CC1Sc2ccc(Nc3nc(Nc4ccc5oncc5c4)ncc3F)cc2NC1=O (racemic) [Compound 931] |

Same assay, conditions: low cell density CHMC, IgE activation, tryptase release, 3 pt; read-out: LD Tryptase, CHMC, IgE, 3 pt

| IC50 | Molecule |
| --- | --- |
| < 10 µM | CC1Sc2ccc(Nc3nc(Cl)ncc3F)cc2NC1=O (racemic) [Compound 314, racemic-N2-Chloro-5-fluoro-N4-(2-methyl-3-oxo-2H,4H-benzo[1,4]thiazin-6-yl)-4-pyrimidineamine] |
| > 10 µM | CC1C(=O)Nc2cc(Nc3nc(Cl)ncc3F)ccc2S1(=O)=O (racemic) [Compound 317, racemic-N2-Chloro-5-fluoro-N4-(2-methyl-1,1,3-trioxo-2H,4H-benzo[1,4]thiazin-6-yl)-4-pyrimidineamine] |

Same assay, conditions: low cell density CHMC, IgE activation, tryptase release, 8 pt; read-out: LD Tryptase, CHMC, IgE, 8 pt

| Molecule | IC50 |
| --- | --- |
| C[C@H]1Oc2ccc(Nc3nc(Nc4cc5c6c(c4)c(CCO)cn6CCO5)ncc3F)cc2NC1=O [Compound 205, (R)-5-Fluoro-N2-[6-(2-hydroxyethyl)-2,3-dihydropyrrolo[1,2,3-d,e]benzoxazin-8-yl]-N4-(2-methyl-3-oxo-2H,4H-benz[1,4]oxazin-6-yl)-2,4-pyrimidinediamine] | < 10 µM |
| CC1(C)COc2ccc(Nc3nc(Nc4cc5c6c(c4)c(CCO)cn6CCO5)ncc3F)cc2N1 [Compound 206, N4-(3,4-Dihydro-3,3-dimethyl-2H,4H-benz[1,4]oxazin-6-yl)-5-fluoro-N2-[6-(2-hydroxyethyl)-2,3-dihydropyrrolo[1,2,3-d,e]benzoxazin-8-yl]-2,4-pyrimidinediamine] | < 10 µM |
| CNC(=O)COc1cccc(Nc2ncc(F)c(Nc3ccc4c(c3)NC(=O)C(C)(C)S4(=O)=O)n2)c1 [Compound 275, N4-(2,2-Dimethyl-1,1,3-trioxo-4H-benzo[1,4]thiazin-6-yl)-5-fluoro-N2-[3-(N-methylamino)carbonylmethyleneoxyphenyl]-2,4-pyrimidinediamine] | < 10 µM |
| COc1ccc(Nc2ncc(F)c(Nc3ccc4c(c3)NC(=O)C(C)(C)S4(=O)=O)n2)cc1Cl [Compound 276] | < 10 µM |

More lines, now with the values ahead:

| IC50 | Molecule |
| --- | --- |
| < 10 µM | CC1C(=O)Nc2cc(Nc3nc(Nc4cccc(O)c4)ncc3F)ccc2S1(=O)=O (racemic) [Compound 284, racemic-5-Fluoro-N2-[3-hydoxyphenyl]-N4-(2-methyl-1,1,3-trioxo-2H,4H-benzo[1,4]thiazin-6-yl)-2,4-pyrimidinediamine] |
| < 10 µM | CNC(=O)COc1cccc(Nc2ncc(F)c(Nc3ccc4c(c3)NC(=O)C(C)S4(=O)=O)n2)c1 (racemic) [Compound 285, racemic-5-Fluoro-N2-[3-(N-methylamino)carbonylmethyleneoxyphenyl]-N4-(2-methyl-1,1,3-trioxo-2H,4H-benzo[1,4]thiazin-6-yl)-2,4-pyrimidinediamine] |
| < 10 µM | CNC(=O)COc1cccc(Nc2ncc(F)c(Nc3ccc4c(c3)NC(=O)C(C)S4)n2)c1 (stereo not drawn) [Compound 279, 5-Fluoro-N2-[3-(N-methylamino)carbonylmethyleneoxyphenyl]-N4-(2-methyl-3-oxo-2H,4H-benzo[1,4]thiazin-6-yl)-2,4-pyrimidinediamine] |

Same assay, conditions: low cell density CHMC, IgE activation, tryptase, 3 pt; read-out: LD Tryptase, CHMC, IgE, 3 pt

| IC50 | Molecule |
| --- | --- |
| < 10 µM | 5-Fluoro-N2,N4-bis (4-[N-[methoxycarbonylmethylene]aminocarbonyl]phenyl)-2,4-pyrimidinediamine [Compound 1332] |
| < 10 µM | 5-Fluoro-N2-[2- (N-methylamino)carbonylindol-7-yl]-N4-[3,4-(tetrafluoroethylenedioxy)phenyl]-2,4-pyrimidinediamine [Compound 365] |

Same assay, conditions: low cell density CHMC, IgE activation, tryptase, 8 pt; read-out: LD Tryptase, CHMC, IgE, 8 pt

| IC50 | Molecule |
| --- | --- |
| < 10 µM | 5-Fluoro-N2,N4-bis (4-[N-[methoxycarbonylmethylene]aminocarbonyl]phenyl)-2,4-pyrimidinediamine [Compound 1332] |
| < 10 µM | 5-Fluoro-N2- (3-hydroxyphenyl)-N4- (4-[N-[methoxycarbonylmethylene]aminocarbonyl]phenyl)-2,4-pyrimidinediamine [Compound 1328] |
| < 10 µM | NC1CCOc2ccc(Nc3nc(Nc4ccc(-c5cnco5)cc4)ncc3F)cc21 (racemic) [Compound 1293, (R,S)-N4-[4-Amino-3,4-dihydro-2H-1-benzopyran-6-yl]-5-fluoro-N2-[4-(oxazol-5-yl)phenyl]-2,4-pyrimidinediamine] |
| < 10 µM | N[C@@H]1CCOc2ccc(Nc3nc(Nc4ccc(-c5ncco5)cc4)ncc3F)cc21 (racemic) [Compound 1294, (R,S)-N4-[4-Amino-3,4-dihydro-2H-1-benzopyran-6-yl]-5-fluoro-N2-[4-(oxazol-2-yl)phenyl]-2,4-pyrimidinediamine] |
